Results published in patent US6677307B2, “TGF-α polypeptides, functional fragments and methods of use therefor” (Kaleidos Pharma, Inc., priority 1999, dated 2004).

Key:
[1] = tested on: lymphoid tissues such as spleen and the large intestine; test: histological examination of lymphoid tissues after TGF-α57; assay type: in vivo; details: mice; 10-50 μg/kg ip 3 days or 10-50 μg/kg iv 2 days or 10 μg/kg sc 3-5 days; vs untreated mice
Excerpt: In still another embodiment, a TGF-α polypeptide, a related polypeptide, mimetic, or functional fragment thereof having TGF-α activity are useful as vaccine adjuvants to increase mucosal humoral immunity. […] Such T cell progenitors positioned in the gastrointestinal tract represent a reservoir for CD4 helper cells needed against mucosal directed vaccine production mediated by priming with exogenous antigen. The T cell progenitor cells appear to be double null and thus naive. Accordingly, the T cell progenitor cell response to TGF-α and TGF-α mimetics provides the utility for such compounds to provide a strong mucosal immunity response and usefulness as a mucosal vaccine and as a universal stem cell adjuvant.

[2] = tested on: kidney tissue (primarily glomeruli); test: Cis-platinum kidney damage, H&E kidney histology; assay type: in vivo; details: mice; CP 10 mg/kg ip; 10 μg/kg 6 hours prior to CP and 24 and 48 hours after CP
Protocol: In addition, administration of a TGF-α polypeptide, fragments, and mimetic to regenerate damaged tissue, for example, in kidney, an organ sensitive to such damage, is also disclosed herein. In an in vivo experiment, mice were administered 10 mg/kg of Cis-platinum as a single ip injection and treated mice administered 10 μg/kg a human TGF-α57 (R&D Systems, Minneapolis, Minn.). TGF-α57 was administered just before CP and in two additional doses after, by ip administration for a general systemic effect. Several organs or tissues were collected from the animals sacrificed 4 days after CP dose (or saline for no TGFα57) and tissues were examined histologically.
The cuboidal epithelium of the proximal convuluted tubule was also damaged.

kidney [3] = test: gentamicin chronic kidney toxicity, blood BUN and creatinine; assay type: in vivo, CD-1 mice; details: gentamicin sulfate 80 mg/kg sc every 24 hours; 1 μg ip every 24 hours; two weeks
Protocol: In another set of in vivo experiments, gentamicin (antibiotic having dose-limiting kidney toxicity side effects) was used as the cytotoxic agent for a chronic cytotoxic agent. Eight CD-1 mice were weighed and injected subcutaneously with 80 mg/kg of gentamicin sulfate. Four of the mice were controls and injected with 0.1 ml of 0.9% saline and the other four injected ip with 0.1 ml of 10 μg/ml stock of TGF-α (57 aa polypeptide) as a 1 μg dose. The mice were reinjected with the same does of saline or TGF-α every 24 hours and every 24 hours subcutaneously with the same does of gentamicin. After two weeks of treatment, the mice were sacrificed and blood BUN and creatinine were measured and the kidneys examined. The average creatinine values were 0.49±0.096 for controls and 0.34±0.042 for treated mice. The average BUN values were 36.1±4.8 for controls and 35.5±4.9 for treated mice.

kidney [4] = test: glycerol acute kidney toxicity, blood BUN and creatinine; assay type: in vivo, CD-1 mice; details: 50% glycerol 10 ml/kg im; 1 μg ip; two treatments
Protocol: In another set of in vivo experiments, glycerol (50% (v/v) aqueous solution, Sigma) was used as the cytotoxic agent for an acute cytotoxic agent. Six CD-1 mice were weighed and injected into both hind limbs im with 10 ml/kg of 50% (v/v) glycerol, one half into each hind limb im. Three of the mice were controls and injected with 0.1 ml of 0.9% saline and the other three injected ip with 0.1 ml of 10 μg/ml stock of TGF-α (57 aa polypeptide) as a 1 μg dose. The mice were reinjected with the same does of saline or TGFα the next day and another equal dose of 50% glycerol. After two treatments, the mice were sacrificed and blood BUN and creatinine was measured and the kidneys examined. The average creatinine values were 1.75±0.613 for controls and 1.51±0.940 for treated mice. The average BUN values were […] for controls and 165.3±75.6 for treated mice.

mouse spleen = test: in vivo model of general hematopoiesis with Cis Platinum (spleen weights, platelets, spleen histology)
Protocol: Hematopoietic and myeloid cells are red blood cell precursors, platelet precursors (megakaryocytes), and immune (white) blood cell precursors of various forms of T cells, B cells and macrophages. […] It should be noted that references to TGF-α as a human 50 amino acid polypeptide further include reference to human TGFα57 as an alternative variant.
The experiment procedure dosed those animals to be treated with TGFα 57 4 hours prior to challenge with CP. A single dose of CP was administered. Additional doses (as indicated) of TGFα 57 were made at 24 hours, 48 hours, 72 hours and 96 hours after the CP dose. All doses were made by IP injection. Controls were dosed with saline instead of either or both of CP and TGF-α57.
The animals were sacrificed about 4 hours after the last TGF-α57 (or saline) dose. Key organs were removed and spleens were immediately weighed after a clean incision. All the relevant organs were placed in formalin, transported for histopathological analysis, mounted, sectioned, stained and observed. The results of this histological analysis of the spleens for hematopoietic effect and the GI tract (below) provided surprising and unexpected data of the effect of TGF-α57 activity.
There was erythrocytes in the perifollicular zone surrounding both the T cell and B cell compartments of white pulp. […] The T cells stained for the T-cell receptor but were negative for CD4 and CD8 markers. Accordingly, the T-cells are double null T-cell progenitors induced by TGF-α administration.

[5] = tested on: human CD34 positive and CD38 negative cells; test: liquid primary culture of human bone-marrow enriched CD34 cells; assay type: cell-based
Protocol: An additional experiment investigated TGF-α activity (using TGF-α57) on human bone-marrow enriched CD34 cells. FACS-sorted human CD34 positive and CD38 negative cells were cultured in liquid primary cultures in Iscove's modified Dulbecco's media with supplements. […] Stem Cell Factor (SCF) was used as a positive control (500 ng/ml) and provided a three-fold increase in CD34 positive cells. When a combination of SCF (500 ng/ml) and TGFα (10 ng/ml) was added, a synergistic 12-fold increase in CD34 positive cells was observed.

[6] = tested on: immune cells (T cell lineage), mast cells; test: immune cells, mast cells and cytokines in vivo after CP; set-up: species or system mice; details: mice after immune-suppression by CP; lymphoid tissue, Peyers Patches, spleen
Excerpt: The stimulated immune cells were phenotypically identified as CD4 positive T cells and double null CD4 negative CD8 negative T cell progenitors. […] The in vivo activity of TGFα (and the functional peptides of formula I, formula II, formula III, and formula IV) to stimulate early T cell progenitors in the release of TH-1 and TH-2 cytokines and this regulation of immune phenomena. The stimulation of select immune cells, in particular cells of a T cell lineage, was seen consistently in the mice who received CP and TGF-α57 in lymphoid tissue, Peyers Patches and the spleen. Further, recruitment of help via CD4 cells in some cases boosts immune system function in general.
This is a parallel activity that is in addition to the gastrointestinal anti-inflammatory activity and prevention of mucositis of TGFα (and the functional peptides of formula I, formula II, formula III, and […]) described herein.

TGF-α57: 57 amino acid polypeptide of formula VI: Ser-Leu-Ser-Leu-Pro-Ala-Met-Human TGFα
T cell progenitor cells (histology) [1]: increase in T cell progenitor cells
glomeruli damage (H&E kidney histology) [2]: essentially protected the glomeruli from damage
average BUN (kidney [3]): 35.5±4.9
average creatinine (kidney [3]): 0.34±0.042
average BUN (kidney [4]): 165.3±75.6
average creatinine (kidney [4]): 1.51±0.940
spleen weights (mouse spleen; CP 5 mg/kg or 10 mg/kg, 10 μg/kg or 50 μg/kg IP, FIG. 3): return to normal spleen weights
spleen histology (H&E) (mouse spleen; CP 10 mg/kg and 50 μg/kg): increased number of T cells and erythrocytes in the perifollicular zone
platelet counts (mouse spleen; with CP, as opposed to CP alone): higher
increase in CD34 positive progenitor cells ([5]; added alone, 10 ng/ml): 35%
proliferation of dendritic precursor cells ([5]; treated cultures): stimulation of the proliferation of dendritic precursor cells
proliferation of select immune cells (T cell lineage) [6]: stimulation of proliferation of select immune cells
